Measured values as given in patent US8017649B2, “Flavonoid compounds and uses thereof” (Howard Florey Institute of Experimental Physiology and …, priority 2005, dated 2011).
“Also recorded” adds a separate entry of the source.

How the values were obtained:
[1] = test system: endothelium intact aortic rings; experiment: Ca2+-induced contraction of rat aortic rings in Ca2+-free high-K+ solution; assay type: cell-based
Protocol: To determine the effect of flavonoids on responses to the influx of extracellular Ca^2+, contractile responses to exogenous application of Ca^2+ were examined in the presence of flavonoids in Ca^2+-free high-K^+ solution (60 mM, KPSS). Aortic rings were initially equilibrated at a resting tension of 1 g in normal Ca^2+-free PSS for 45 minutes. The bath medium was then replaced with Ca^2+-free KPSS for 45 minutes to determine a reference contraction to Ca^2+ (3×10^−3 M). Following a 30 minute re-equilibration period with Ca^2+-free PSS, the cumulative contractile responses to Ca^2+ (10^−5−3×10^−3 M) were determined in KPSS in the presence of a range of concentrations (10^−8-10^−4 M) of vehicle, 3′,4′-dihydroxyflavonol, 3-hydroxyflavone-3-hemiadipate, 3′,4′-dihydroxy-3-hemiadipate, 3-hydroxyflavone-3-phosphate. A 20 minute incubation period was allowed for the flavonoids before examining the responses to Ca^2+.
To determine the effect of flavonoids on responses to the influx of extracellular Ca^2+, contractile responses to exogenous application of Ca^2+ were examined in the presence of flavonoids in Ca^2+-free high-K^+ solution (60 mM, K+-PSS). Aortic rings were initially equilibrated at a resting tension of 1 g in Ca^2+-free PSS for 45 minutes. The bath medium was then replaced with Ca^2+-free K+-PSS for 45 minutes to determine a reference contraction to added Ca^2+ (3 mM). Following a 30 minute re-equilibration period with Ca^2+-free PSS, the cumulative contractile responses to Ca^2+ (10^−5−3×10^−3 M) were determined in K^+ PSS in the presence of vehicle (0.1% DMSO), or a range of concentrations (10^−7-10^−4 M) of 3′-hydroxyflavonol, F3HA, DiOHF3HA or F3P. A 20 minute incubation period was allowed for the flavonoids before examining the responses to Ca^2+. Experiments were conducted in the presence and absence of BuCHE (1000 U/L) to cleave the adipate in F3HA and DiOHF3HA. In experiments using F3P, phosphatase (1000 U/L) was used in some experiments to cleave the phosphate.

[2] = test system: endothelium-intact (EI) aortic rings; experiment: PE-induced contraction of rat aortic rings; assay type: cell-based
Protocol: Rings were incubated for 20 minutes with DiOHF3HA at a range of concentrations (10^−7-10^−4 M) or vehicle (0.1% dimethyl sulphoxide, DMSO). A concentration response curve to PE (10^−9-10^−5 M) in endothelium-intact (EI) aortic rings was then performed. Experiments were conducted in the presence and absence of BuCHE (1000 U/L) to cleave the adipate in DiOHF3HA.

[3] = test system: anaesthetised sheep; experiment: Myocardial ischaemia and reperfusion injury in anaesthetised sheep; assay type: in vivo; conditions: for effect on infarct size / cardioprotection: i.v. in aqueous solution after 30 min of ischaemia; for infarct size normalized to the area at risk (IS/AR): lower dose: DiOHF3HA 2.7 mg/kg, DiOHF 2 mg/kg i.v.
Protocol: The ability of the synthetic flavonol, 3′,4′ dihydroxy flavonol adipate (DiOHF3HA) to prevent myocardial ischaemia and reperfusion injury in anaesthetised Sheep was assessed.
Five groups of anaesthetised adult merino sheep (35-45 kg wethers) were examined:
Anaesthesia was induced by intravenous thiopentone sodium (15 mg/kg) and following tracheal intubation was maintained by isoflurane (1.5-2%). A catheter was inserted in the right facial artery for arterial blood sampling and monitoring arterial pressure. Intravenous infusions were made via a catheter inserted into the jugular vein. The heart was exposed through a left thoracotomy performed at the fourth intercostal space. A 4F catheter-tipped manometer was inserted through the left atrium into the left ventricle to measure left ventricular pressure (LVP). An additional silastic cannula was inserted into the left atrial appendage for the injection of lignocaine and for infusion of Evans Blue. The left anterior descending coronary artery (LAD) was dissected from the epicardium immediately distal to its second diagonal branch, and a transit-time 2 mm flow probe was placed around it to monitor the LAD blood flow. A silk suture was passed under the LAD proximal to the probe and both ends of the silk were threaded through a plastic tube to form a vascular snare.
The animals were allowed to stabilise for 10-15 minutes after the completion of the surgical procedure. Sheep were then randomly divided into different treatment groups. All sheep had 30 minute baseline recording followed by 1 hour ischaemia and 3 hours reperfusion.
During the course of the experiment, haemodynamic measurements were recorded at 5 minute intervals and blood samples were taken at designated time-points. After 30 minutes of ischaemia, flavonol treatment was administered. DiOHF was dissolved in 2 ml DMSO plus 14 ml polyethylene glycol:water (1:1). DiOHF3HA was dissolved in 20 ml 0.1M Na2CO3. The drugs were given at 1 ml/min i.v. The two doses of DiOHF3HA (2.7 mg/kg and 6.6 mg/kg) were chosen to achieve equivalent molar doses to the parent DiOHF compound (at 2 mg/kg and 5 mg/kg, respectively). […] Lignocaine was used, as required, to ameliorate arrhythmias.
The area of myocardium at risk and infarct size were delineated by Evan's blue and triphenyltetrazolium chloride (TTC) staining. After 3 hours of reperfusion, the LAD was re-occluded at the original occlusion site. Immediately after intravenous injection of pentobarbitone (100 mg kg^−1) to arrest the heart, Evan's blue dye (1.5%, 40 ml) was injected into the left atrium to define the myocardium at risk. The heart was rapidly removed and the left ventricle was sliced into transverse sections about 1 cm thick. The unstained risk area was traced onto the same transparencies. The sections were then incubated in 0.1 M sodium phosphate buffer containing 1% TTC for 20 min (37° C., pH 7.4). The infarcted area was traced onto transparencies. The area of myocardium at risk, and infarct size, were measured by computerised planimetry. The former was expressed as a percentage of total left ventricular volume (AR/LV %) and infarct size was expressed as a percentage of the area of myocardium at risk (IS/AR %).
Arterial blood samples (5 ml) were collected into chilled heparinised tubes at baseline, during ischaemia and at three time points during the reperfusion period (1 hour, 2 hour and 3 hour). Following centrifugation at 4° C., plasma samples were stored at −20° C. until measurement to determine levels of lactate dehydrogenase and creatinine kinase.

SMILES | Maximum Contraction (percent 3 mM Ca^2+) ([1]; 10^−4 M + BuCHE) | Maximum Contraction (percent 3 mM Ca^2+) ([1]; 10^−4 M, without BuCHE) | effect on Ca^2+-induced contraction ([1]; alone, highest concentration 10^−4 M) | effect on Ca^2+-induced contraction ([1]; alone, over the concentration range tested) | effect on Ca^2+-induced contraction ([1]; in the presence of BuCHE or phosphatase (1000 U/L)) | effect on PE-induced contraction ([2]; alone, 0.1 mM) | effect on PE-induced contraction ([2]; in the presence of esterase (BuCHE)) | regression of LAD flow after reperfusion hyperperfusion ([3]; 6.6 mg/kg vs control) | haemodynamic indices (arterial pressure, HR, LV-EDP, dP/dtmax) during infusion ([3]; 20-min i.v. infusion, 6.6 mg/kg) | increase in plasma creatine kinase ([3]; after 1 hour ischaemia and 3 hours reperfusion) | increase in plasma lactate dehydrogenase ([3]; after 1 hour ischaemia and 3 hours reperfusion, n=4) | effect on infarct size / cardioprotection [3] | effect on infarct size / cardioprotection ([3]; listed as Adipate) | infarct size normalized to the area at risk (IS/AR) [3]
O=C(O)CCCCC(=O)Oc1c(-c2ccc(O)c(O)c2)oc2ccccc2c1=O [DiOHF3HA, 3′,4′-dihydroxyflavone-3-hemiadipate] | 35 ± 6 percent 3 mM Ca^2+ | 101 ± 1 percent 3 mM Ca^2+ | slight Ca2+ inhibitory action | little effect on calcium-induced contraction | markedly enhanced the inhibitory effect; also recorded: equivalent inhibitory effect to DiOHF; also recorded: inhibit calcium-induced contraction | no effect on PE-induced contraction | inhibit the response to PE in a concentration dependent manner; also recorded: marked inhibition | more rapid | did not alter haemodynamic indices; also recorded: unchanged | 1579±936 U/L | 67±32 U/L | dose-related reduction in infarct size; also recorded: equivalent degree of cardioprotection to the parent compound | significant difference in infarct size | 64%
O=c1c(O)c(-c2ccc(O)c(O)c2)oc2ccccc12 [DiOHF, 3′,4′-Dihydroxyflavonol, reference compound] | – | 18 ± 2 percent 3 mM Ca^2+ | – | – | – | inhibit the response to PE in a concentration dependent manner | – | – | – | – | – | – | – | 73%
